The values below come from ChEMBL document CHEMBL1155952, “4-Amino-6-arylamino-pyrimidine-5-carbaldehyde hydrazones as potent ErbB-2/EGFR dual kinase inhibitors” (Bioorg Med Chem Lett, 2008).

One may read the IC50 as the midpoint of a concentration-inhibition curve. A lower IC50 goes with greater potency. Broadly, the inhibition is how much of the control response was suppressed. Lower therefore signals a response near the control.

Some results are limits rather than exact numbers.

Data set [1] addresses Epidermal growth factor receptor (Homo sapiens, UniProt P00533). The data set can be described thus: Inhibition of human EGFR expressed in SF9 cells.
Data set [2] has as its target T1, Receptor tyrosine-protein kinase erbB-2 (Homo sapiens, UniProt P04626). The data set can be described thus: Inhibition of human ErbB2.
Data set [3] addresses T1, Receptor tyrosine-protein kinase erbB-2. The data set can be described thus: Inhibition of human ErB2 phosphorylation in human SKBR3 cells. The format is cell-based, SK-BR-3.
Another data set concerns HeLa. The data set can be described thus: Antiproliferative activity against human HeLa cells. The format is functional, cell-based.
Another data set has as its system BT-474. The data set can be described thus: cells. The following applies: Homo sapiens.
For the next data set, the system named is NCI-N87. The data set can be described thus: Antiproliferative activity against human N87 cells overexpressing ErB2. The format is functional, cell-based.
Another data set has as its system SK-BR-3. The data set can be described thus: Antiproliferative activity against human SKBR3 cells overexpressing ErB2. The format is functional, cell-based.
Data set [4] has as its target RAF proto-oncogene serine/threonine-protein kinase (Homo sapiens) (UniProt P04049). The data set can be described thus: Inhibition of c-Raf at 3 uM.
The nature of data set [5]: Plasma concentration in Sprague-Dawley rat at 10 mg/kg, po administered in 0.5% hydroxypropyl methylcellulose after 2 hrs. The arrangement: dose 10 mg/kg, route oral. The format is ADME, organism-based.
For data set [6], the target named is Tyrosine-protein kinase Lck (Homo sapiens) (UniProt P06239). The data set can be described thus: Inhibition of LCK at 3 uM.
Sequence of Tyrosine-protein kinase Lck (Homo sapiens) (P06239 2-509 limits assumed): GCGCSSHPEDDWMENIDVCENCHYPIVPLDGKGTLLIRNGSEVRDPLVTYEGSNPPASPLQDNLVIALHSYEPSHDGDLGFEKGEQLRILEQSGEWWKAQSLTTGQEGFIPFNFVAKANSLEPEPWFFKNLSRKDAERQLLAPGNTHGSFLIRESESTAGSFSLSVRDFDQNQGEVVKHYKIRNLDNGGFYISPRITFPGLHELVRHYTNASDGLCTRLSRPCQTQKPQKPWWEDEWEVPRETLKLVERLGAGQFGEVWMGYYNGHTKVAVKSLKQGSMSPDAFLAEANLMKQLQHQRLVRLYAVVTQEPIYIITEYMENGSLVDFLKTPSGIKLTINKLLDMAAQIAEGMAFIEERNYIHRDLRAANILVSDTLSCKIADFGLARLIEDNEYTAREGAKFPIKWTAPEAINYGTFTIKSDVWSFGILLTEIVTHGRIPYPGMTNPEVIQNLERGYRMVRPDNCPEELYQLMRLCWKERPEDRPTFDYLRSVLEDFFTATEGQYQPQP
Data set [7] is described as follows: Plasma concentration in Sprague-Dawley rat at 10 mg/kg, po administered in 0.5% hydroxypropyl methylcellulose after 0.5 hrs. The format is ADME, organism-based. The arrangement: dose 10 mg/kg, route oral.
Data set [8] is described as follows: Plasma concentration in Sprague-Dawley rat at 10 mg/kg, po administered in 0.5% hydroxypropyl methylcellulose after 1 hr. The format is ADME, organism-based. Also on record: dose 10 mg/kg, route oral.
The nature of data set [9]: Plasma concentration in Sprague-Dawley rat at 10 mg/kg, po administered in 10% solutol in D5W after 1 hr. The format is ADME, organism-based. The arrangement: dose 10 mg/kg, route oral.
Data set [10] is described as follows: Plasma concentration in Sprague-Dawley rat at 10 mg/kg, po administered in 10% solutol in D5W after 2 hrs. Also on record: dose 10 mg/kg, route oral. The format is ADME, organism-based.
Data set [11] is described as follows: Plasma concentration in Sprague-Dawley rat at 10 mg/kg, po administered in 10% solutol in D5W after 0.5 hrs. The format is ADME, organism-based. Also on record: dose 10 mg/kg, route oral.
Data set [12] is described as follows: Plasma concentration in Sprague-Dawley rat at 10 mg/kg, po administered in 10% solutol in D5W after 4 hrs. The format is ADME, organism-based. The arrangement: dose 10 mg/kg, route oral.

T1 sequence (P04626 whole entry): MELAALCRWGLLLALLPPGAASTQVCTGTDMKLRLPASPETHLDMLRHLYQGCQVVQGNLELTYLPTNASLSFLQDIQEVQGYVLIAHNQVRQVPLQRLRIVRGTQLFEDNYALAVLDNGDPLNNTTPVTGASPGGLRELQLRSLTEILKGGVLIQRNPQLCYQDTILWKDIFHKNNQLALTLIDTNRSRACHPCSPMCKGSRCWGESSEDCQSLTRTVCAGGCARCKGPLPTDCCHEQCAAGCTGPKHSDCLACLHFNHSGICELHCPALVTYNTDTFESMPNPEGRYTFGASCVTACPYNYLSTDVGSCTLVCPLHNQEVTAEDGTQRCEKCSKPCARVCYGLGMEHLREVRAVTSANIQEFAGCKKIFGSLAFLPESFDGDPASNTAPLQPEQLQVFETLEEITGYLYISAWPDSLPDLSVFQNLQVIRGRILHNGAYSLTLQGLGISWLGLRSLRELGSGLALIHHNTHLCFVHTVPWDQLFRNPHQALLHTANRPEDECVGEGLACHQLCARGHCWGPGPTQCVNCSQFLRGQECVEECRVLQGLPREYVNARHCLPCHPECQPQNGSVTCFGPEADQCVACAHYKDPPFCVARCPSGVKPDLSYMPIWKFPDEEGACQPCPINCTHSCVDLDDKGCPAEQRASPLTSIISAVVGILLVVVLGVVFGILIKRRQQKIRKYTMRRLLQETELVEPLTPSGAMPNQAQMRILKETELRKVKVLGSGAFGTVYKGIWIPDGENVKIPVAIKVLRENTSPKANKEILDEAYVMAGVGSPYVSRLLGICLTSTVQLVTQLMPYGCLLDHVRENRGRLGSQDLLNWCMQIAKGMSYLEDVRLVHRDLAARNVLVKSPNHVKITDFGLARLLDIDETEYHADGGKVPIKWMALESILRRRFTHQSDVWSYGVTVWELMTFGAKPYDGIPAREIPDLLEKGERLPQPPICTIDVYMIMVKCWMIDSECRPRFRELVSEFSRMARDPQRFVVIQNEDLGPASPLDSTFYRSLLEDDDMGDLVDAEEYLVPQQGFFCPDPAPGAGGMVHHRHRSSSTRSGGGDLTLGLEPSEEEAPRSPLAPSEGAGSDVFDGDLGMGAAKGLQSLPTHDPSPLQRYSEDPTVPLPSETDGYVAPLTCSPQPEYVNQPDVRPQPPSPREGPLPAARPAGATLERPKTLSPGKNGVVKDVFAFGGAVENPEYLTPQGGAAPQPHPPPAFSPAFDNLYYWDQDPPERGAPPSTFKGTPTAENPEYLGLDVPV
Sequence of Epidermal growth factor receptor (P00533 whole entry): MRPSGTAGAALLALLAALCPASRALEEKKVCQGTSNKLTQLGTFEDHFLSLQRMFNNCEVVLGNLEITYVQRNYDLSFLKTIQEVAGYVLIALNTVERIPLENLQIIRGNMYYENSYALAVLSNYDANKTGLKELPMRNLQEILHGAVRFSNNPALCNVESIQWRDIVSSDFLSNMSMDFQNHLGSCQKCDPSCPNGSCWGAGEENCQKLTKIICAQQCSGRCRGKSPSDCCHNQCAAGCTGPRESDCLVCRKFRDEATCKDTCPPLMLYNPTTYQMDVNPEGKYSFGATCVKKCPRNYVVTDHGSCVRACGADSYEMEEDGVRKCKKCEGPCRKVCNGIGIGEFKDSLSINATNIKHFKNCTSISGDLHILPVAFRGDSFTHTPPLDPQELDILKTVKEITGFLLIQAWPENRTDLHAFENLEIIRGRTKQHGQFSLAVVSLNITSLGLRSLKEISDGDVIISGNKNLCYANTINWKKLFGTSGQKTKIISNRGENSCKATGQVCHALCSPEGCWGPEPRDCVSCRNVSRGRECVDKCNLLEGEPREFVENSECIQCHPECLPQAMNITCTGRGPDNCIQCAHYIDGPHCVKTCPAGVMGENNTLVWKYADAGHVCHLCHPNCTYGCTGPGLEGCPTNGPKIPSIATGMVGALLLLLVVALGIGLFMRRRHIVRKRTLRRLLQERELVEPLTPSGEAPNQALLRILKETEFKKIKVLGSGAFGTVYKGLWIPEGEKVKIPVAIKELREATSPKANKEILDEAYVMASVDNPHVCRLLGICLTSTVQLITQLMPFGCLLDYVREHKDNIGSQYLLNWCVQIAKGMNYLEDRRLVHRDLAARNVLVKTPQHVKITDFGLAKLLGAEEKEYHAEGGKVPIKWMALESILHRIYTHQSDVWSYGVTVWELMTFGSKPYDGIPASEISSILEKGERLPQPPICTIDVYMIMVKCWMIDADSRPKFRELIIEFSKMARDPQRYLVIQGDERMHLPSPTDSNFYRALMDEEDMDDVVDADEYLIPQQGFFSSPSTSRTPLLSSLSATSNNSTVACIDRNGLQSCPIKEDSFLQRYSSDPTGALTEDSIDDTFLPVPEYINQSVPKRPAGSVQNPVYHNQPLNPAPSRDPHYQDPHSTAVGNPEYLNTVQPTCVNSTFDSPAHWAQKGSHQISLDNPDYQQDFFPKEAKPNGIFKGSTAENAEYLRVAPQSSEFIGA
Sequence of RAF proto-oncogene serine/threonine-protein kinase (Homo sapiens) (P04049 whole entry): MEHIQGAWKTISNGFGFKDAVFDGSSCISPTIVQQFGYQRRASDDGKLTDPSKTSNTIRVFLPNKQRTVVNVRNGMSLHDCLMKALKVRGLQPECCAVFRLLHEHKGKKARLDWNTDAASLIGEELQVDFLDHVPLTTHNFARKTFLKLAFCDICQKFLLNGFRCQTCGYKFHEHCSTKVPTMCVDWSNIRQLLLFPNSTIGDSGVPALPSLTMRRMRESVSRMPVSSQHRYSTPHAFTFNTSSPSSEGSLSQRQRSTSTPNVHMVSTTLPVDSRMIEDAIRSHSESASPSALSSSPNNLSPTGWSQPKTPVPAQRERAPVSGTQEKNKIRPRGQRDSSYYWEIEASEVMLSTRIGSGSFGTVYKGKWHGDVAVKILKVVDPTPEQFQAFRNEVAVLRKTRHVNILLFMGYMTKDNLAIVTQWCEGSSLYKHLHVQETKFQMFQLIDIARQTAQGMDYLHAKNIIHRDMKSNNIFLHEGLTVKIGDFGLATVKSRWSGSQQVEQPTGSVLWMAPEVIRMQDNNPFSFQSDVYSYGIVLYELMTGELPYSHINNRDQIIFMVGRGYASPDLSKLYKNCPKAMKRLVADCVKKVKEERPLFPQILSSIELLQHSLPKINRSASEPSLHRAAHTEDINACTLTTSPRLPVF
Description for BT-474: Antiproliferative activity against human BT474 cells overexpressing ErB2

Consider `COc1ccc(/N=C/c2c(N)ncnc2Nc2ccc3c(cnn3Cc3cccc(F)c3)c2)cc1`, for which the IC50 stood at 49 nM in [1], 118 nM in data set [2] and 1290 nM in [3].
For the compound `CN/N=C/c1c(N)ncnc1Nc1ccc2c(cnn2Cc2cccc(F)c2)c1`, the IC50 in [1] amounted to 12 nM; in data set [2], 84 nM; in [3], 361 nM.
Take `Nc1ncnc(Nc2ccc3c(cnn3Cc3cccc(F)c3)c2)c1/C=N/NCC(F)(F)F`: the IC50 is 52 nM in data set [1], 20 nM in [2] and 258 nM in [3].
With `Nc1ncnc(Nc2ccc3c(cnn3Cc3cccc(F)c3)c2)c1/C=N/N1CCN(CCO)CC1`, the IC50 in data set [1] is 9 nM; in the data set with HeLa, above 100000 nM; with BT-474, 14 nM; in data set [2] it was 8 nM; in the data set with NCI-N87, 58 nM; in the data set with SK-BR-3 it was 58 nM. Also, it took 54 nM to reach half-maximal inhibition in data set [3] (IC50).
Take `Nc1ncnc(Nc2ccc3c(cnn3Cc3cccc(F)c3)c2)c1/C=N/N1CCOCC1`: the results for the inhibition in [4] and in [6] were 47% and 71%, respectively. Besides, the IC50 in data set [1] is 16 nM; with HeLa it was above 100000 nM; in the data set on BT-474, 31 nM; in [2], 7 nM; in the data set with NCI-N87, 91 nM; with SK-BR-3, 122 nM. The IC50 in [3] amounted to 83 nM. In [5], this compound displayed a concentration at 2 h of 1.5 ng/mL. In [7], this compound came in with a concentration at 0.5 h of 26.1 ng/mL. Besides, the concentration at 1 h in data set [8] worked out at 21.6 ng/mL.
Regarding `Nc1ncnc(Nc2ccc3c(cnn3Cc3cccc(F)c3)c2)c1/C=N/N1CCCCC1`, the inhibition in data set [4] is 50%; in [6] it was 60%. Moreover, the IC50 in the data set with HeLa was above 10000 nM; in the data set with BT-474, 49 nM; in [2], 18 nM; in the data set with NCI-N87, 365 nM; in the data set with SK-BR-3, 691 nM; in [3], 148 nM. The compound also registered a concentration at 2 h in data set [5] of 32.4 ng/mL. Besides, in [7], the concentration at 0.5 h stood at 23.4 ng/mL. The compound also showed a concentration at 1 h in [8] of 12.6 ng/mL.
For `CN1CCN(/N=C/c2c(N)ncnc2Nc2ccc3c(cnn3Cc3cccc(F)c3)c2)CC1`, the IC50 in data set [1] is 16 nM; in [2] it was 8 nM; in data set [3], 509 nM.
As for `CN(C)/N=C/c1c(N)ncnc1Nc1ccc2c(cnn2Cc2cccc(F)c2)c1`, the concentration at 1 h in [9] stood at 6.3 ng/mL. Moreover, the IC50 in data set [1] was 8 nM; with HeLa, above 100000 nM; in the data set on BT-474, 63 nM; in [2] it was 2 nM; in the data set with NCI-N87, 131 nM; with SK-BR-3 it was 148 nM. In [3], this compound gave an IC50 of 105 nM. Moreover, in data set [10], the concentration at 2 h came to 13.2 ng/mL. Moreover, the concentration at 0.5 h in data set [11] worked out at 10.1 ng/mL. Moreover, the concentration at 4 h in data set [12] was 4.6 ng/mL.
For `COC[C@H]1CCCN1/N=C/c1c(N)ncnc1Nc1ccc2c(cnn2Cc2cccc(F)c2)c1`, the IC50 came to 31 nM in [1] and 72 nM in data set [2].
On to `COC[C@@H]1CCCN1/N=C/c1c(N)ncnc1Nc1ccc2c(cnn2Cc2cccc(F)c2)c1`, for which the results for the IC50 in data set [1], in [2] and in data set [3] were 26 nM, 39 nM and 426 nM, respectively.
